Laboratory results reported in patent US20260055112A1, “CRYSTALLINE FORM OF PYRAZOLOPYRIMIDINE ESTER COMPOUND AND METHODS OF PREPARING THE SAME” (Shanghai Maius Pharmaceutical Co. Ltd., priority 2022, published 2026).
“Also recorded” adds a separate entry of the source.

Experiments:
[1] = Stability study: change in purity after 10 days storage under forced degradation conditions; format: physicochemical; settings: for Purity, 25° C. + 92.5% RH (Day 10): stored at 25° C. and 92.5% RH for 10 days; for Purity (Day 10): stored for 10 days
Method: Samples of the amorphous and crystalline (Form I) compound of formula (I) were stored under different conditions: at 40° C. for 10 days; […]; at 25° C. and 92.5% RH (relative humidity) for 10 days; at 60° C. and 75% RH for 10 days; in light for 10 days; and at room temperature for 10 days.

[2] = among the pyrazolopyrimidine ester prodrugs of CN 202111131059.0; cited from earlier work

Compound: C=CC(=O)N1CCC[C@@H](n2nc(-c3ccc(Oc4ccccc4)cc3)c3c(NC(=O)OCCCC)ncnc32)C1 [Form I, 1-[(3R)-3-[4-(butoxycarbonyl)-amino-3-(4-phenoxyphenyl)-1H-pyrazolo[3,4-d]pyrimidin-1-yl]-1-piperidinyl]-2-propen-1-one]
- Stability (in words) ([1]; 10 days of storage at room temperature and in light): highly stable; also recorded: very stable
- Degree of degradation compared with the amorphous form ([1]; several forced degradation conditions): lower degrees of degradation than the amorphous compound; also recorded: lower degree of degradation than the amorphous form
- Purity, 25° C. + 92.5% RH (Day 10) [1]: 98.63%
- Purity (Day 10) [1]: 2.19%

Compound: C=CC(=O)N1CCC[C@@H](n2nc(-c3ccc(Oc4ccccc4)cc3)c3c(NC(=O)OCCCC)ncnc32)C1 [Amorphous, 1-[(3R)-3-[4-(butoxycarbonyl)-amino-3-(4-phenoxyphenyl)-1H-pyrazolo[3,4-d]pyrimidin-1-yl]-1-piperidinyl]-2-propen-1-one]
- Stability in general (in words) ([1]; amorphous product, heat and moisture): poor stability
- Degradation observed (in words) ([1]; storage 10 days at 40° C.): Significant degradation
- Degradation observed (in words) ([1]; storage 10 days at 40° C., listed as amorphous sample): Noticeable degradation
- Degradation observed (in words) ([1]; storage 10 days at 60° C. and 75% RH): almost complete degradation
- Purity, 25° C. + 92.5% RH (Day 10) [1]: 98.00%
- Purity (Day 10) [1]: 0%

Compound: C=CC(=O)N1CCC[C@@H](n2nc(-c3ccc(Oc4ccccc4)cc3)c3c(NC(=O)OCCCC)ncnc32)C1 [formula (I), 1-[(3R)-3-[4-(butoxycarbonyl)-amino-3-(4-phenoxyphenyl)-1H-pyrazolo[3,4-d]pyrimidin-1-yl]-1-piperidinyl]-2-propen-1-one]
- Rate of hydrolysis in blood [2]: hydrolyzed most rapidly
